What was measured:
Conditions in all cases: human; call rule not given here
Hepatotoxicity [1] = assay: FDA HLAED, liver enzyme composite activity
Hepatotoxicity [2] = assay: FDA HLAED, lactate dehydrogenase (LDH) increase
Hepatotoxicity [3] = assay: FDA HLAED, serum glutamic oxaloacetic transaminase (SGOT) increase
Hepatotoxicity [4] = assay: FDA HLAED, alkaline phosphatase increase
Hepatotoxicity [5] = assay: FDA HLAED, gamma-glutamyl transferase (GGT) increase
Hepatotoxicity [6] = assay: FDA HLAED, serum glutamic pyruvic transaminase (SGPT) increase
Throughout, for GGT Increase - Index Value: reference of the scale not given here.
Throughout, for LDH Increase - Index Value: reference of the scale not given here.

Row | Compound | Composite Activity - Active (Hepatotoxicity [1]) | Composite Activity - Marginal (Hepatotoxicity [1]) | Composite Activity - Score (Hepatotoxicity [1]) | LDH Increase - Activity Score (Hepatotoxicity [2]) | LDH Increase - Index Value (Hepatotoxicity [2]) | LDH Increase - Number of Reports (Hepatotoxicity [2]) | SGOT Increase - Activity Score (Hepatotoxicity [3]) | SGOT Increase - Index Value (Hepatotoxicity [3]) | SGOT Increase - Number of Reports (Hepatotoxicity [3]) | Alkaline Phosphatase Increase - Activity Score (Hepatotoxicity [4]) | Alkaline Phosphatase Increase - Index Value (Hepatotoxicity [4]) | Alkaline Phosphatase Increase - Number of Reports (Hepatotoxicity [4]) | GGT Increase - Activity Score (Hepatotoxicity [5]) | GGT Increase - Index Value (Hepatotoxicity [5]) | GGT Increase - Number of Reports (Hepatotoxicity [5]) | SGPT Increase - Activity Score (Hepatotoxicity [6]) | SGPT Increase - Index Value (Hepatotoxicity [6]) | SGPT Increase - Number of Reports (Hepatotoxicity [6]) | other results
1 | OCc1cc(C(O)CNCCCCCCOCCCCc2ccccc2)ccc1O (stereo not given) [SALMETEROL] | 0 | 0 | Inactive | Inactive | 0 | < 4 | Inactive | 0.1 | < 4 | Inactive | 0 | < 4 | Inactive | 0.1 | < 4 | Inactive | 0.1 | < 4 | –
2 | C#CCN(C)[C@H](C)Cc1ccccc1 [SELEGILINE] | 0 | 0 | Inactive | Inactive | 0 | < 4 | Inactive | 0.4 | < 4 | Inactive | 2.2 | >= 4 | Inactive | 1.8 | >= 4 | Inactive | 1.5 | >= 4 | –
3 | CN[C@H]1CC[C@@H](c2ccc(Cl)c(Cl)c2)c2ccccc21 [SERTRALINE] | – | – | – | Inactive | 0.9 | >= 4 | Inactive | 2.7 | >= 4 | Inactive | 2 | >= 4 | Inactive | 2 | >= 4 | Inactive | 2.1 | >= 4 | Composite Activity - Active (Hepatotoxicity [1]; Liver): 0; Composite Activity - Marginal (Hepatotoxicity [1]; Liver): 0; Composite Activity - Score (Hepatotoxicity [1]; Liver): Inactive
4 | FCOC(C(F)(F)F)C(F)(F)F [SEVOFLURANE] | 0 | 0 | Inactive | Inactive | 1.6 | < 4 | Inactive | 4.6 | < 4 | Inactive | 3.1 | < 4 | Inactive | 0 | < 4 | Inactive | 0 | < 4 | –
5 | CC(C)NCC(O)c1ccc(NS(C)(=O)=O)cc1 (stereo not given) [SOTALOL] | 0 | 0 | Inactive | Inactive | 1 | < 4 | Inactive | 3 | < 4 | Inactive | 1 | < 4 | Inactive | 1 | < 4 | Inactive | 0 | < 4 | –

— ChEMBL document CHEMBL1697781, “Assessment of the health effects of chemicals in humans: II. Construction of an adverse effects database for QSAR modeling” (Curr Drug Discov Technol, 2004)
